pEC50, pIC50: −log10 of the molar value.
How the values were obtained:
[1] = system: HOS; assay: In vitro cytotoxic activity, Calcein AM assay, HOS; format: cell-based; settings: 72 hours
[2] = system: mouse fibroblasts NIH3T3; assay: In vitro cytotoxic activity, Calcein AM assay, NIH-3T3; format: cell-based; settings: 72 hours, read-out: IC 50 NIH-3T3
How it was run: (§1)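 Cells seeded at 10^4 per well, pre-incubated 24 h at 37 °C/5% CO2, then exposed 72 h to six 4-fold dilutions of compound (top well concentration usually 166.7 μM) in duplicate. Viability read by Calcein AM fluorescence after 1 h; GI50 taken from dose-response curves.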

[3] = system: human erythroleukaemia K562; assay: In vitro cytotoxic activity, Calcein AM assay, K-562; format: cell-based; settings: 72 hours, read-out: IC 50 K-562
How it was run: as §1

[4] = system: human diploid fibroblasts (HCA cells); assay: Inhibition of senescence of mammal cells: β-galactosidase staining of senescent cells; format: cell-based; settings: for Senescent cells (%) HCA25: passage 25; for Senescent cells (%) HCA45: passage 45; for Senescent cells (%) HCA80: passage 80
Method: In this example, human diploid fibroblasts (HCA cells with different levels of passage: passage 25—labelling HCA25; passage 45—labelling HCA45; passage 80—labelling HCA80) were used for studying β-galactosidase activity. Medium used for cells cultivation was removed, cells were washed twice with PBS and fixed in 2-3 ml of fixation agent consisting of 2% of formaldehyde and 0.2% of flutaraldehyde in PBS. Cells were incubated at room temperature for 5 min and subsequently washed twice with PBS. Cells were then incubated at 37° C. (without CO2) for 1 to 16 hours in 2-3 ml of solution comprising potassium ferricyanide (5 mM), potassium ferrocyanide (5 mM), MgCl2 (2 mM), X-gal (5-bromo-4-chloro-3-indolyl-β-D-galactopyranoside) (1 mg/ml) in citrate/phosphate buffer, pH 6.0. […] In this experiment only senescent cells were labelled due to the effect of β-galactosidase on the substrate.

[5] = system: tobacco callus Nicotiana tabacum L. cv. Wisconsin 38; assay: Growth of cytokinin-dependent tobacco callus; format: cell-based; settings: for Activity (%) [10^−5 mol · l^−1 BAP = 100%]: callus growth, at concentration with highest activity; for Concentration with highest activity: fresh callus weight after four weeks
Method: Cytokinin-dependent tobacco callus Nicotiana tabacum L. cv. Wisconsin 38 was maintained at 25° C. in darkness on modified Murashige-Skoog medium, containing per 1 liter: 4 μmol nicotinic acid, 2.4 μmol pyridoxine hydrochloride, 1.2 μmol thiamine, 26.6 μmol glycine, 1.37 μmol glutamine, 1.8 μmol myo-inositol, 30 g of sucrose, 8 g of agar, 5.37 μmol α-naphtylacetic acid (NAA) and 0.5 μmol benzylaminopurine (BAP). Subcultivation was carried out every three weeks. Fourteen days before the bioassay, the callus tissue was transferred to the media without 6-benzylaminopurine (BAP). Biological activity was determined from the increase in fresh callus weight after four weeks of cultivation. Five replicates were prepared for each cytokinin concentration and the entire test was repeated twice. From the obtained data, the concentration with highest activity was selected for each compound tested. Relative activity of the compound at this concentration was calculated (Tab. 6). […] The cytokinins to be tested were dissolved in dimethylsulfoxide (DMSO) and the solution brought up to 10^−3M with distilled water. This stock was further diluted in the respective media used for the biotest to concentrations ranging from 10^−8M to 10^−4M.

[6] = system: Triticum aestivum cv. Hereward; assay: Senescence inhibition on winter wheat leaf segments (chlorophyll retention); format: in vivo; settings: for Concentration with highest activity: chlorophyll retention in excised wheat leaf tips, 96 h dark; for Activity (%) [10^−4 mol · l^−1 BAP = 100%]: chlorophyll retention, at concentration with highest activity
Method: Seeds of winter wheat, Triticum aestivum cv. Hereward, were washed under running water for 24 hours and then sown on vermiculite soaked with Knop's solution. They were placed in the grown chamber at 15° C. with a 16/8 h light period at 50 μmol·m^−2·s^−1. After 7 days, the first leaf was fully developed and the second leaf had started to grow. A tip section of the first leaf, approximately 35 mm long, was removed from 5 seedlings and trimmed slightly to a combined weight of 100 mg. The basal ends of the five leaf tips were placed in the wells of a microtiter polystyrene plate containing 150 μl of a cytokinin solution each. The entire plate was inserted into a plastic box lined with paper tissues soaked in distilled water to prevent leaf sections from drying out. After a 96 h incubation in the dark at 25° C., the leaves were removed and chlorophyll extracted by heating at 80° C. for 10 min in 5 ml of 80% ethanol (v/v). The sample volume was then restored to 5 ml by the addition of 80% ethanol (v/v). The absorbency of the extract was recorded at 665 nm. In addition, chlorophyll extracts from fresh leaves and leaf tips incubated in deionised water were measured. From the obtained data, the concentration with highest activity was selected for each compound tested. Relative activity of the compound at this concentration was calculated (Tab. 10). The activity obtained for 10^−4 M 6-benzylaminopurine (BAP) was postulated as 100%. The values shown are means of five replicates and the whole experiment was repeated twice. The cytokinins to be tested were dissolved in dimethylsulfoxide (DMSO) and the solution brought up to 10^−3M with distilled water. This stock was further diluted in distilled water to concentrations ranging from 10^−8M to 10^−4M.

[7] = system: promyelocytic HL-60; assay: In vitro cytotoxic activity, Calcein AM assay, HL60; format: cell-based, human; settings: 72 hours, read-out: IC 50 HL60
How it was run: as §1

[8] = system: breast carcinoma cell lines MCF-7; assay: In vitro cytotoxic activity, Calcein AM assay, MCF7; format: cell-based, human; settings: 72 hours, read-out: IC 50 MCF7
How it was run: as §1

[9] = system: Amaranthus caudatus cotyledon/hypocotyl explants; assay: Amaranthus bioassay (betacyanin content); format: in vivo; settings: for Concentration with highest activity: 48 h dark; for Activity (%) [10^−5 mol · l^−1 BAP = 100%]: at concentration with highest activity
How it was run: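 Surface-sterilised Amaranthus caudatus var. atropurpurea seeds were germinated 72 h at 25° C. in darkness, then de-rooted. Cotyledon/hypocotyl explants (20 per dish) were incubated under green safe light on filter paper with 1 ml medium of 10 μmol NA2HPO4-KH2PO4, pH 6.8, 5 μmol tyrosine and cytokinin (10^-8M to 10^-4M) for 48 h at 25° C. in darkness. Betacyanin was extracted in […] acetic acid and measured by absorbance at 537 nm and 620 nm.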

[10] = system: Human T-lymphoblastic leukemia cell line CEM; assay: In vitro cytotoxic activity, Calcein AM assay, CEM; format: cell-based; settings: 72 hours
How it was run: as §1

[11] = system: Human lymphocytes; assay: Immunosuppressive activity: concanavalin A induced lymphocyte proliferation, [^3H]-TdR incorporation; format: cell-based; settings: 72 hours, read-out: Human lymphocytes ED50
Method: Human heparinized peripheral blood was obtained from healthy volunteers by cubital vein punction. The blood was diluted in PBS (1:3) and mononuclear cells were separated by centrifugation in Ficoll-Hypaque density gradient (Pharmacia, 1.077 g/ml) at 2200 rpm for 30 minutes. Following centrifugation, lymphocytes were washed in PBS and resuspended in cell culture medium (RMPI 1640, 2 mM glutamine, 100 U/ml penicillin, 100 μg/ml streptomycin, 10% fetal calf serum and sodium bicarbonate).
The cells were diluted at target density of 1,100,000 cells/ml were added by pipette (180 μl) into 96/well microtiter plates. Four-fold dilutions of the intended test concentration were added at time zero in 20 μl aliquots to the microtiter plate wells. Usually, test compound was evaluated at six 4-fold dilutions. In routine testing, the highest well concentration was 266.7 μM. All drug concentrations were examined in duplicates. All wells with exception of unstimulated controls were activated with 50 μl of concanavalin A (25 μg/ml). Incubations of cells with test compounds lasted for 72 hours at 37° C., in 5% CO2 atmosphere and 100% humidity. At the end of incubation period, the cells were assayed by using the [^3H]-TdR:
Cell cultures were incubated with 0.5 μCi (20 μl of stock solution 500 μCi/ml) per well for 6 hours at 37° C. and 5% CO2. The automated cell harvester was used to lyse cells in water and adsorb the DNA onto glass-fiber filters in the format of microtiter plate. The DNA incorporated [^3H]-TdR was retained on the filter while unincorporated material passes through. The filters were dried at room temperature overnight, sealed into a sample bag with 10-12 ml of scintillant. The amount of [^3H]-TdR present in each filter (in cpm) was determined by scintillation counting in a Betaplate liquid scintillation counter. The effective dose of immunosuppressant (ED) was calculated using the following equation: ED=(CCPMdrug exposed well/mean CCPMcontrol wells)×100%. The ED50 value, the drug concentration inhibiting proliferation of 50% of lymphocytes, was calculated from the obtained dose response curves.

[12] = system: human malignant melanoma cells G361; assay: In vitro cytotoxic activity, Calcein AM assay, G-361; format: cell-based; settings: 72 hours, read-out: IC 50 G-361
From the text: One of the parameters used, as the basis for cytotoxicity assays, is the metabolic activity of viable cells. For example, a microtiter assay, which uses the Calcein AM, is now widely used to quantitate cell proliferation and cytotoxicity. For instance, this assay is used in drug screening programs and in chemosensitivity testing. Because only metabolically active cells cleave Calcein AM, these assays detect viable cells exclusively. The quantity of reduced Calcein AM corresponds to the number of vital cells in the culture.
Human T-lymphoblastic leukemia cell line CEM; promyelocytic HL-60 and monocytic U937 leukemias; breast carcinoma cell lines MCF-7; cervical carcinoma cells HELA; mouse fibroblasts NIH3T3; human erythroleukaemia K562 and human malignant melanoma cells G361 were used for routine screening of compounds. The cells were maintained in Nunc/Corning 80 cm^2 plastic tissue culture flasks and cultured in cell culture medium (DMEM with 5 g/l glucose, 2 mM glutamine, 100 U/ml penicillin, 100 μg/ml streptomycin, 10% fetal calf serum and sodium bicarbonate).
The cell suspensions that were prepared and diluted according to the particular cell type and the expected target cell density (10^4 cells per well based on cell growth characteristics) were added by pipette (80 μl) into 96/well microtiter plates. Inoculates were allowed a pre-incubation period of 24 hours at 37° C. and 5% CO2 for stabilisation. Four-fold dilutions of the intended test concentration were added at time zero in 20 μl aliquots to the microtiter plate wells. Usually, test compound was evaluated at six 4-fold dilutions. In routine testing, the highest well concentration was 166.7 μM, but it can be the matter of change dependent on the agent. All drug concentrations were examined in duplicates. Incubations of cells with the test compounds lasted for 72 hours at 37° C., in 5% CO2 atmosphere and 100% humidity. At the end of incubation period, the cells were assayed by using the Calcein AM. Ten microliters of the stock solution were pipetted into each well and incubated further for 1 hours. Fluorescence (FD) was measured with the Labsystem FIA Reader Fluoroscan Ascent (UK). The tumour cell survival (GI50) was calculated using the following equitation: GI50=(FDdrug exposed well/mean FDcontrol wells)×100%. The GI50 value, the drug concentration lethal to 50% of the tumour cells, was calculated from the obtained dose response curves (FIG. 3).

Row | SMILES | pIC50 [1] | pIC50 [2] | pIC50 [3] | Senescent cells (%) HCA25 [4] [%] | Senescent cells (%) HCA45 [4] [%] | Senescent cells (%) HCA80 [4] [%] | Activity (%) [10^−5 mol · l^−1 BAP = 100%] [5] [%] | Concentration with highest activity [5] | Concentration with highest activity [6] | Activity (%) [10^−4 mol · l^−1 BAP = 100%] [6] [%] | pIC50 [7] | pIC50 [8] | Concentration with highest activity [9] | Activity (%) [10^−5 mol · l^−1 BAP = 100%] [9] [%] | pIC50 [10] | pEC50 [11] | pIC50 [12]
1 | COc1cccc(CNc2ncnc3c2ncn3[C@@H]2O[C@H](CO)[C@@H](O)[C@H]2O)c1OC [2,3-dimethoxybenzylamino, 6-(2,3-dimethoxybenzylamino)purine riboside] | < 3.78 | < 3.78 | < 3.78 | 4 | 5 | 18 | 5 ± 2 | 10^−6 mol · l^−1 | 10^−4 mol · l^−1 | 106 ± 17 | 3.96 | < 3.78 | 10^−4 mol · l^−1 | 21 ± 7 | < 3.78 | – | –
2 | COc1ccc(CNc2ncnc3c2ncn3[C@@H]2O[C@H](CO)[C@@H](O)[C@H]2O)c(O)c1 [2-hydroxy-4-methoxybenzylamino, 6-(2-hydroxy-4-methoxybenzylamino)purine riboside] | – | – | – | – | – | – | – | – | – | – | – | – | – | – | – | 5.82 | –
3 | Nc1cc(CNc2ncnc3c2ncn3[C@@H]2O[C@H](CO)[C@@H](O)[C@H]2O)ccc1Cl [3-amino-4-chlorobenzylamino, 6-(3-amino-4-chlorobenzylamino)purine riboside] | – | – | – | 4 | 6 | 22 | – | – | – | – | – | – | – | – | – | – | –
4 | OC[C@H]1O[C@@H](n2cnc3c(Nc4cccc(Cl)c4)ncnc32)[C@H](O)[C@@H]1O [3-chloroanilino] | – | – | – | 4 | 4 | 27 | – | – | – | – | – | – | – | – | – | – | –
5 | COc1ccc(CNc2ncnc3c2ncn3[C@@H]2O[C@H](CO)[C@@H](O)[C@H]2O)cc1 [4-methoxybenzylamino, 6-(4-methoxybenzylamino)purine riboside] | < 3.78 | < 3.78 | < 3.78 | – | – | – | 2 ± 2 | 10^−6 mol · l^−1 | 10^−4 mol · l^−1 | 110 ± 9 | < 3.78 | < 3.78 | 10^−4 mol · l^−1 | 17 ± 8 | < 3.78 | – | 3.94
6 | c1coc(CNc2ncnc3[nH]cnc23)c1 [Kinetin, reference compound] | – | – | – | 3 | 5 | 25 | – | – | – | – | – | – | – | – | – | – | –
7 | C/C(=C\CNc1ncnc2c1ncn2[C@@H]1O[C@H](CO)[C@@H](O)[C@H]1O)CO [zeatin riboside, reference compound] | < 3.78 | < 3.78 | < 3.78 | – | – | – | – | – | – | – | < 3.78 | < 3.78 | – | – | < 3.78 | – | < 3.78
